Our source for the TGI values is PubChem BioAssay (NCI).

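Protocol summary: plate cells (96-well), add compound at 5 concentrations, incubate 48 h, interpolate endpoints linearly. Definition used: TGI = concentration required for complete inhibition of growth.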

Among the test systems are TK-10 renal; DMS 273 small cell lung; RXF-631 renal; M19-MEL melanoma; U251 CNS; DMS 114 small cell lung; HOP-18 NSCLC; DLD-1 colon; KM20L2 colon; SNB-78 CNS; M14 melanoma; XF 498 CNS; LXFL 529 NSCLC.
Common to all, as to assay: NCI anticancer screen, dose series, 48 h

For `CC(=O)NNc1nc(C)c(C(=O)/C=C/c2ccc(Cl)c(Cl)c2)s1`, the TGI in the assay with TK-10 renal, in the assay with DMS 273 small cell lung, with RXF-631 renal, in the assay with M19-MEL melanoma, in the assay on U251 CNS and with DMS 114 small cell lung was more than 100 µM each time. For the same compound, the TGI with HOP-18 NSCLC, in the assay on DLD-1 colon, with KM20L2 colon and in the assay on SNB-78 CNS was more than 100 µM each time.

For `CCOC(=O)C1SC(=Nc2ccc(Cl)cc2Cl)N=C1C` (stereo unspecified), the TGI in the assay on TK-10 renal, in the assay with DMS 273 small cell lung, with M19-MEL melanoma, with M14 melanoma, in the assay on U251 CNS and in the assay with DMS 114 small cell lung was more than 100 µM throughout. Further, the TGI with XF 498 CNS was 94.1 µM; in the assay with HOP-18 NSCLC, more than 100 µM; in the assay on DLD-1 colon, more than 100 µM; in the assay on KM20L2 colon, more than 100 µM; in the assay on LXFL 529 NSCLC, more than 100 µM; in the assay on SNB-78 CNS, more than 100 µM.

As to `O=C(O)CCN(CCCN(CCC(=O)O)CCC(=O)O)CCC(=O)O`, the TGI in the assay with TK-10 renal, in the assay on DMS 273 small cell lung, in the assay with RXF-631 renal, with M19-MEL melanoma, in the assay with M14 melanoma and in the assay with U251 CNS was more than 100 µM in each case. Besides, the TGI in the assay with DMS 114 small cell lung, in the assay on XF 498 CNS, in the assay with HOP-18 NSCLC, in the assay with DLD-1 colon, in the assay on KM20L2 colon and in the assay with LXFL 529 NSCLC was more than 100 µM throughout.

`COc1ccc2c(c1)[n+]([O-])c(/C(C)=N/NC(=O)c1ccccc1O)c(C)[n+]2[O-]`: the TGI in the assay on TK-10 renal, in the assay on RXF-631 renal, in the assay on M19-MEL melanoma, in the assay with M14 melanoma, in the assay with U251 CNS and in the assay with DMS 114 small cell lung was more than 100 µM each time. Moreover, the TGI in the assay with XF 498 CNS, with HOP-18 NSCLC, in the assay on DLD-1 colon, in the assay on KM20L2 colon, in the assay with LXFL 529 NSCLC and with SNB-78 CNS was more than 100 µM each time.

For `COc1cc(CNc2cnc3ccc(N)cc3n2)cc(OC)c1OC`, the TGI with TK-10 renal, with DMS 273 small cell lung, in the assay with M19-MEL melanoma, in the assay on M14 melanoma, with U251 CNS and in the assay with DMS 114 small cell lung was more than 100 µM in each case. In addition, the TGI with HOP-18 NSCLC, in the assay on KM20L2 colon, in the assay on LXFL 529 NSCLC and in the assay with SNB-78 CNS was more than 100 µM throughout.

`COc1ccccc1NC(=O)CC(=O)N1N=C(c2ccccc2)C(N=Nc2ccc(Cl)cc2)C1=O` (stereo unspecified): the TGI with TK-10 renal is 52.3 µM; with DMS 273 small cell lung it was more than 100 µM; with RXF-631 renal, more than 100 µM; in the assay on M19-MEL melanoma it was more than 100 µM; in the assay on M14 melanoma it was more than 100 µM; in the assay with U251 CNS, more than 100 µM. The TGI in the assay on DMS 114 small cell lung, with XF 498 CNS, with DLD-1 colon, with KM20L2 colon, with LXFL 529 NSCLC and with SNB-78 CNS was more than 100 µM in each case.

On to `NC(CCCCNCc1ccccc1)C(=O)O` (stereo unspecified), for which the TGI with TK-10 renal, in the assay with DMS 273 small cell lung, in the assay with RXF-631 renal, with M19-MEL melanoma, in the assay on M14 melanoma and in the assay on U251 CNS was more than 100 µM throughout. The TGI in the assay with DMS 114 small cell lung, in the assay on HOP-18 NSCLC, in the assay on DLD-1 colon, with KM20L2 colon, with LXFL 529 NSCLC and in the assay with SNB-78 CNS was more than 100 µM in each case.

As for `CC(=O)NC1COC(COC(=O)CCCCCCCCCCNC(=O)c2ccc([N+](=O)[O-])c3c(=O)c4ccccc4[nH]c23)C(O)C1OC(C)C(=O)NC(C(=O)NC(CCC(N)=O)C(=O)OCc1ccccc1)C(C)C` (stereo unspecified), the TGI with TK-10 renal was 54.4 µM; in the assay with DMS 273 small cell lung, 27.3 µM; in the assay on RXF-631 renal it was more than 100 µM; with M19-MEL melanoma, 10.7 µM; with M14 melanoma it was 66.3 µM; in the assay with U251 CNS, 27.9 µM. Besides, the TGI in the assay with DMS 114 small cell lung was 30.4 µM; in the assay with XF 498 CNS it was 34.8 µM; with HOP-18 NSCLC it was 43.9 µM; with DLD-1 colon, 10.1 µM; with KM20L2 colon, 33.5 µM; with LXFL 529 NSCLC, more than 60.6 µM. In the assay on SNB-78 CNS, this compound showed a TGI of more than 22.8 µM.

Turning to `CC(C)OP(=O)(OC(C)C)C(=NCCN=C(NNc1ccccc1[N+](=O)[O-])P(=O)(OC(C)C)OC(C)C)NNc1ccccc1[N+](=O)[O-]`, the TGI in the assay with TK-10 renal is more than 100 µM; in the assay with DMS 273 small cell lung, more than 100 µM; with M19-MEL melanoma, more than 100 µM; in the assay on M14 melanoma, more than 100 µM; in the assay on U251 CNS it was 83.4 µM; in the assay on DMS 114 small cell lung, more than 100 µM. Moreover, the TGI was more than 100 µM in the assay with DLD-1 colon, 60.2 µM in the assay with KM20L2 colon and more than 100 µM in the assay with LXFL 529 NSCLC.

In the case of `C/C(=N/O)c1sc(-c2nc(C)c(/C(C)=N\O)s2)nc1C`, the TGI in the assay with DMS 273 small cell lung, in the assay on RXF-631 renal, in the assay with M19-MEL melanoma, in the assay with M14 melanoma, in the assay with U251 CNS and with DMS 114 small cell lung was more than 100 µM in each case. Further, the TGI with XF 498 CNS, with HOP-18 NSCLC, in the assay with DLD-1 colon, with KM20L2 colon, with LXFL 529 NSCLC and with SNB-78 CNS was more than 100 µM throughout.

`NC(N)=NS(=O)(=O)c1ccc(NC(=O)c2cccc3c(N)c4ccccc4nc23)cc1`: the TGI with TK-10 renal, with DMS 273 small cell lung, in the assay on RXF-631 renal, in the assay with M19-MEL melanoma, in the assay on M14 melanoma and in the assay with U251 CNS was more than 100 µM throughout. The TGI with DMS 114 small cell lung, in the assay with XF 498 CNS, in the assay on DLD-1 colon, in the assay on KM20L2 colon, in the assay with LXFL 529 NSCLC and in the assay on SNB-78 CNS was more than 100 µM in each case.

`Cc1nc2c3c(ccc2[nH]c1=O)C(=O)c1ccccc1C3=O`: the TGI in the assay with TK-10 renal, in the assay on M19-MEL melanoma, in the assay on M14 melanoma, with U251 CNS, in the assay with DMS 114 small cell lung and with XF 498 CNS was more than 100 µM throughout. Further, the TGI in the assay with HOP-18 NSCLC, in the assay on DLD-1 colon, with KM20L2 colon and in the assay on LXFL 529 NSCLC was more than 100 µM each time.

Turning to `CC(C)c1ccc(/C=C/c2cc(C(=O)NNC(=O)NC3CCCCC3)nc(=S)[nH]2)cc1`, the TGI in the assay on TK-10 renal, with DMS 273 small cell lung, in the assay on RXF-631 renal, in the assay with M19-MEL melanoma, in the assay on M14 melanoma and with U251 CNS was more than 100 µM each time. In addition, the TGI in the assay with DMS 114 small cell lung, in the assay on XF 498 CNS, with HOP-18 NSCLC, in the assay on DLD-1 colon, in the assay on KM20L2 colon and with LXFL 529 NSCLC was more than 100 µM throughout. The TGI in the assay with SNB-78 CNS is more than 100 µM.

Turning to `COC(=O)C(=O)C(/C(=N/N)C(=O)Nc1ccccc1C(N)=O)c1nc2ccc([N+](=O)[O-])cc2[nH]c1=O` (stereo unspecified), the TGI in the assay on TK-10 renal, in the assay with DMS 273 small cell lung, in the assay on M19-MEL melanoma, in the assay on M14 melanoma, in the assay with U251 CNS and with DMS 114 small cell lung was more than 100 µM each time. Also, the TGI in the assay with XF 498 CNS, with DLD-1 colon, in the assay on KM20L2 colon, with LXFL 529 NSCLC and in the assay with SNB-78 CNS was more than 100 µM each time.

For the compound `CC1=C(C(=O)CC(=O)C(=O)Nc2ccc(C)c(C)c2)Sc2ccccc2N1`, the TGI with TK-10 renal, in the assay with DMS 273 small cell lung, in the assay with M19-MEL melanoma, in the assay with M14 melanoma, in the assay with U251 CNS and with DMS 114 small cell lung was more than 100 µM in each case. The TGI with XF 498 CNS, in the assay on HOP-18 NSCLC, in the assay with DLD-1 colon, in the assay with KM20L2 colon, in the assay with LXFL 529 NSCLC and with SNB-78 CNS was more than 100 µM each time.

Take `CCN(CC)Cc1cc(Nc2ccnc3ccc4nn(C)nc4c23)ccc1O`: the TGI in the assay on TK-10 renal worked out at 75.6 µM; in the assay with RXF-631 renal, 31.3 µM; in the assay on M19-MEL melanoma, 24.7 µM; in the assay with M14 melanoma, 27.9 µM; in the assay with U251 CNS it was 45.5 µM; with XF 498 CNS, 24.3 µM. Further, the TGI in the assay on KM20L2 colon was found to be 25.3 µM; with LXFL 529 NSCLC, 27.6 µM; in the assay with SNB-78 CNS it was 44.9 µM.

For the compound `Cc1ccc(Sc2ccccc2N)cc1`, the TGI in the assay with TK-10 renal, in the assay on DMS 273 small cell lung, in the assay on RXF-631 renal, in the assay on M19-MEL melanoma, in the assay with M14 melanoma and in the assay with U251 CNS was more than 100 µM throughout. Besides, the TGI with DMS 114 small cell lung was more than 100 µM; in the assay with HOP-18 NSCLC, more than 100 µM; in the assay on KM20L2 colon, more than 100 µM; in the assay with LXFL 529 NSCLC it was 32.9 µM; with SNB-78 CNS, more than 100 µM.

For `O=C(Cc1nc2ccc([N+](=O)[O-])cc2[nH]c1=O)C(=O)Nc1ccccc1[N+](=O)[O-]`, the TGI in the assay on TK-10 renal, in the assay with DMS 273 small cell lung, in the assay with M19-MEL melanoma, in the assay with M14 melanoma, with DMS 114 small cell lung and in the assay on DLD-1 colon was more than 100 µM each time. The TGI in the assay on KM20L2 colon and in the assay on LXFL 529 NSCLC was more than 100 µM each time.

As for `COc1ccc(/C=C2\CCC(CCN3CCOCC3)C2=O)cc1` (stereo unspecified), the TGI in the assay on TK-10 renal, with DMS 273 small cell lung, with M19-MEL melanoma, in the assay with M14 melanoma, in the assay with DMS 114 small cell lung and in the assay on XF 498 CNS was more than 100 µM throughout. Besides, the TGI with HOP-18 NSCLC, in the assay on DLD-1 colon, in the assay on KM20L2 colon, in the assay on LXFL 529 NSCLC and with SNB-78 CNS was more than 100 µM throughout.

As to `O=C(O)c1ccc([C@@H]2C(=O)N(O)[C@@H]3C=CC[C@@H]32)cc1`, the TGI with TK-10 renal, in the assay with DMS 273 small cell lung, in the assay on RXF-631 renal, with M19-MEL melanoma, with M14 melanoma and in the assay on DMS 114 small cell lung was more than 100 µM in each case. Also, the TGI with XF 498 CNS, in the assay on DLD-1 colon, with LXFL 529 NSCLC and with SNB-78 CNS was more than 100 µM throughout.
